Laboratory results taken from patent publication US8173829B2, “Carbamate stereoisomer” (Sunovion Pharmaceuticals Inc., priority 2007, dated 2012).

Columns and labels:
[1] = target: T1, human recombinant β1 receptors (Homo sapiens, UniProt P08588); assay: β1 radioligand binding assay; details: β1 receptor
T1 construct: expressed in transfected cells; host or cells: CHO cells
Experimental: (§1) βi and β2 Radioligand Binding Assays
(§2) The Ki is calculated from the IC50 and the known KD of the radioligand (Cheng and Prusoff's equation).

[2] = target: T2, human recombinant β2 receptors expressed in CHO cells (Homo sapiens, UniProt P07550); assay: Intrinsic activity assessment (β2), cAMP production; format: cell-based; details: % response relative to a procaterol-induced cAMP increase
T2 construct: expressed in transfected cells; host or cells: CHO cells
T2 sequence (P07550 whole entry): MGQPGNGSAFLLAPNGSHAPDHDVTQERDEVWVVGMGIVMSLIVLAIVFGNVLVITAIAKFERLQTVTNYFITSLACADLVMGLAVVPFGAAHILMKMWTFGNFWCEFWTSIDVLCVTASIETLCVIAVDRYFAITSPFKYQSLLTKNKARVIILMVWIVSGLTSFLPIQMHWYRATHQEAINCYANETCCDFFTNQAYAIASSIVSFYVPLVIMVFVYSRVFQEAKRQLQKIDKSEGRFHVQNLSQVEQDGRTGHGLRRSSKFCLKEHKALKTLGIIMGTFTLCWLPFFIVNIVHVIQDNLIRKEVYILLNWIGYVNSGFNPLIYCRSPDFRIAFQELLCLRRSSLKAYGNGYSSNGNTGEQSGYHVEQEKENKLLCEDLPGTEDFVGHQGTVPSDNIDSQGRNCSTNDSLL
Experimental: Intrinsic Activity Assessment (β2)
The intrinsic activity of a test compound is assessed by evaluating its ability to increase cAMP production from human recombinant β2 receptors expressed in CHO cells. Data are expressed as % response relative to a procaterol-induced cAMP increase.

[3] = Stability in aqueous buffered solutions; format: physicochemical
Experimental: Stability in Aqueous Buffered Solutions
Solution Preparations: For each test compound, the following solutions are prepared. • Solution A is prepared from ˜30 mg of the test compound in 150 mL of 0.005 M citrate buffer, pH 5.0 (˜0.2 mg/mL). • Solution B is prepared as follows: approximately 30 mL aliquot of Solution A is transferred to a separated container and the pH of the solution is adjusted to pH 3.0 with 1 N HCl (˜0.2 mL). • Solution C is prepared as follows: approximately 30 mL aliquot of Solution A is transferred to a separated container and the pH of the solution is adjusted to pH ˜8.0 with 1 N NaOH (˜0.2 mL). • Note: Because the volume of 1 N HCl or 1 N NaOH used for adjusting pH was negligible, the concentration of test compound in Solutions A, B and C were the same.
Storage SCHEME • As soon as the above solutions were prepared, aliquots of each solution were transferred into 11 vials, of which 9 vials are stored at −20° C., and one each is stored at 30° C. and 40° C., respectively. • At each interval listed below, two vials are removed from −20° C. storage, and stored at 30° C. and 40° C., respectively. • The corresponding weeks under the storage condition (30° C. or 40° C.) are shown in the table below.
On Week 12, the last vial stored at −20° C. is removed and warmed up to the room temperature, which is the Day 0 Solution.
Sample Analysis: On Week 12, all solutions are assayed by an HPLC method using the Day 0 Solution at pH 5 as a standard solution. The test compounds were assayed by HPLC with UV detection (refer to Table 1 for method conditions).

adrenergic β1 receptors = target: T3, adrenergic β1 receptors (Cavia porcellus, UniProt H0W3H1); assay: β1 adrenergic activity (functional), positive chronotropic effect in isolated right atria; set-up: species or system Dunkin Hartley Guinea pigs; details: β1 functional assay, at a concentration of 30 μM
T3 construct: from tissue; host or cells: isolated right atria of Dunkin Hartley guinea pigs
T3 sequence (H0W3H1 1-470): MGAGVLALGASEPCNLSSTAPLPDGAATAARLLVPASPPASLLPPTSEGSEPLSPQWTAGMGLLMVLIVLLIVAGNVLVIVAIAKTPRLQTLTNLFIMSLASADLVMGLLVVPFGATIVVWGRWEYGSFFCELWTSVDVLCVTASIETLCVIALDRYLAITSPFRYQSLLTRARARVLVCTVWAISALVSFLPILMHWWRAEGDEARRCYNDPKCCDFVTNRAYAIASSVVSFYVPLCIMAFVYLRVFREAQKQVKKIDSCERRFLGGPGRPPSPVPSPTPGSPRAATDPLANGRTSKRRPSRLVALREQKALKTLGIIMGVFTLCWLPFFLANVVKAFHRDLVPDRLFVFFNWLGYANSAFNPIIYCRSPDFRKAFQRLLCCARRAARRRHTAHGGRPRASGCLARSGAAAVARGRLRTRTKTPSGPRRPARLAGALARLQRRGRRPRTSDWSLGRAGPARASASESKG

adrenergic β2 receptors = target: T4, adrenergic β2 receptors (Cavia porcellus, UniProt Q8K4Z4); assay: β2 adrenergic activity (functional), relaxation of spontaneous tone of isolated trachea; set-up: species or system Dunkin Hartley Guinea pigs
T4 construct: from tissue; host or cells: isolated trachea of Dunkin Hartley guinea pigs
T4 sequence (Q8K4Z4 whole entry): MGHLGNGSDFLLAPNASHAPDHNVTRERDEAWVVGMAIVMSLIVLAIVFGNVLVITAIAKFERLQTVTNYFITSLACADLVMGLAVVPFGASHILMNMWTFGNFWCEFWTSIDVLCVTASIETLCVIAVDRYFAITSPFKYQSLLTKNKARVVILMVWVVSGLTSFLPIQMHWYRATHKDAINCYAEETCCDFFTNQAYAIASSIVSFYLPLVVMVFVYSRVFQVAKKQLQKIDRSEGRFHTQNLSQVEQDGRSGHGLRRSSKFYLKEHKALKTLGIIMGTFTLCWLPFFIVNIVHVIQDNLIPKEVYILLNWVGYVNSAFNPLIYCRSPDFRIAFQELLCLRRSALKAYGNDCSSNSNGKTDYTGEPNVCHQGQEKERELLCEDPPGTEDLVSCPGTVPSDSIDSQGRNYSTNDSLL

[4] = target: T5, human recombinant β2 receptors (Homo sapiens, UniProt P07550); assay: β2 radioligand binding assay
T5 construct: expressed in transfected cells; host or cells: CHO cells
T5 sequence (P07550 whole entry): as the sequence (P07550 whole entry) above
Experimental: as §1, §2

T1 sequence (P08588 whole entry): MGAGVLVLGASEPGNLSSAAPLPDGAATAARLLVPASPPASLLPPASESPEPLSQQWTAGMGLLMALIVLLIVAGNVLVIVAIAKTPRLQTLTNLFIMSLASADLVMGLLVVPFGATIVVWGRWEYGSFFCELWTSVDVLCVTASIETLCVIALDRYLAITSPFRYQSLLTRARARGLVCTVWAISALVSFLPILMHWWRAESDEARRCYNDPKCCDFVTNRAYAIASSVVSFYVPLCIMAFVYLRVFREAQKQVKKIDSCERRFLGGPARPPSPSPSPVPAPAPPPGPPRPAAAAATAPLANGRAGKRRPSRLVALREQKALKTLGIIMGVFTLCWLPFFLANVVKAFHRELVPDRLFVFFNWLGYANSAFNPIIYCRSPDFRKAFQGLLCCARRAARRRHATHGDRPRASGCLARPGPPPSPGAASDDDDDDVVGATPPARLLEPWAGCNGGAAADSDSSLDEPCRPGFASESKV

Q: Which results are given for `COC(=O)Nc1cc([C@H](O)CN[C@H](C)Cc2ccc(O)cc2)ccc1O` [Example 1, Carbamic acid, [2-hydroxy-5-[(1S)-1-hydroxy-2-[[(1R)-2-(4-hydroxyphenyl)-1-methylethyl]amino]ethyl]-phenyl]-, methyl ester]?
A: inhibition at 20 µM ([1]; at a concentration of 20 μM, read-out: inhibition of specific binding): 44%; Ki ([1]; displacement of [125I]-cyanopidolol, CHO cells): > 10 µM; Emax [2]: 79%; % of Initial Concentration (0.19847 mg/mL) in pH 5.0 ([3]; pH 3.0, 30° C., 0 wk): 98.31%; % of Initial Concentration (0.19847 mg/mL) in pH 5.0 ([3]; pH 3.0, 30° C., 1 wk): 99.95%; % of Initial Concentration (0.19847 mg/mL) in pH 5.0 ([3]; pH 3.0, 30° C., 2 wk): 99.12%; % of Initial Concentration (0.19847 mg/mL) in pH 5.0 ([3]; pH 3.0, 30° C., 4 wk): 100.91%; % of Initial Concentration (0.19847 mg/mL) in pH 5.0 ([3]; pH 3.0, 30° C., 8 wk): 101.16%; % of Initial Concentration (0.19847 mg/mL) in pH 5.0 ([3]; pH 3.0, 30° C., 12 wk): 101.54%; % of Initial Concentration (0.19847 mg/mL) in pH 5.0 ([3]; pH 3.0, 40° C., 0 wk): 98.31%; % of Initial Concentration (0.19847 mg/mL) in pH 5.0 ([3]; pH 3.0, 40° C., 1 wk): 98.87%; % of Initial Concentration (0.19847 mg/mL) in pH 5.0 ([3]; pH 3.0, 40° C., 2 wk): 100.33%; % of Initial Concentration (0.19847 mg/mL) in pH 5.0 ([3]; pH 3.0, 40° C., 4 wk): 105.71%; % of Initial Concentration (0.19847 mg/mL) in pH 5.0 ([3]; pH 3.0, 40° C., 8 wk): 106.72%; % of Initial Concentration (0.19847 mg/mL) in pH 5.0 ([3]; pH 3.0, 40° C., 12 wk): 106.51%; time for which found to be very stable ([3]; pH 3 or 5, stored at 30° C.): at least 12 weeks; % of Initial Concentration (0.19847 mg/mL) in pH 5.0 ([3]; pH 5.0, 30° C., 0 wk): 100.20%; % of Initial Concentration (0.19847 mg/mL) in pH 5.0 ([3]; pH 5.0, 30° C., 1 wk): 99.68%; % of Initial Concentration (0.19847 mg/mL) in pH 5.0 ([3]; pH 5.0, 30° C., 2 wk): 101.08%; % of Initial Concentration (0.19847 mg/mL) in pH 5.0 ([3]; pH 5.0, 30° C., 4 wk): 101.59%; % of Initial Concentration (0.19847 mg/mL) in pH 5.0 ([3]; pH 5.0, 30° C., 8 wk): 105.28%; % of Initial Concentration (0.19847 mg/mL) in pH 5.0 ([3]; pH 5.0, 30° C., 12 wk): 106.61%; % of Initial Concentration (0.19847 mg/mL) in pH 5.0 ([3]; pH 5.0, 40° C., 0 wk): 100.20%; % of Initial Concentration (0.19847 mg/mL) in pH 5.0 ([3]; pH 5.0, 40° C., 1 wk): 100.40%; % of Initial Concentration (0.19847 mg/mL) in pH 5.0 ([3]; pH 5.0, 40° C., 2 wk): 101.07%; % of Initial Concentration (0.19847 mg/mL) in pH 5.0 ([3]; pH 5.0, 40° C., 4 wk): 102.09%; % of Initial Concentration (0.19847 mg/mL) in pH 5.0 ([3]; pH 5.0, 40° C., 8 wk): 104.88%; % of Initial Concentration (0.19847 mg/mL) in pH 5.0 ([3]; pH 5.0, 40° C., 12 wk): 106.74%; % of Initial Concentration (0.19847 mg/mL) in pH 5.0 ([3]; ~pH 8, 30° C., 0 wk): 97.78%; % of Initial Concentration (0.19847 mg/mL) in pH 5.0 ([3]; ~pH 8, 30° C., 1 wk): 69.33%; % of Initial Concentration (0.19847 mg/mL) in pH 5.0 ([3]; ~pH 8, 30° C., 2 wk): 50.77%; % of Initial Concentration (0.19847 mg/mL) in pH 5.0 ([3]; ~pH 8, 30° C., 4 wk): 27.72%; % of Initial Concentration (0.19847 mg/mL) in pH 5.0 ([3]; ~pH 8, 30° C., 8 wk): 6.96%; % of Initial Concentration (0.19847 mg/mL) in pH 5.0 ([3]; ~pH 8, 30° C., 12 wk): 1.24%; % of Initial Concentration (0.19847 mg/mL) in pH 5.0 ([3]; ~pH 8, 40° C., 0 wk): 97.78%; % of Initial Concentration (0.19847 mg/mL) in pH 5.0 ([3]; ~pH 8, 40° C., 1 wk): 30.18%; % of Initial Concentration (0.19847 mg/mL) in pH 5.0 ([3]; ~pH 8, 40° C., 2 wk): 8.85%; % of Initial Concentration (0.19847 mg/mL) in pH 5.0 ([3]; ~pH 8, 40° C., 4 wk): 0.52%; % of Initial Concentration (0.19847 mg/mL) in pH 5.0 ([3]; ~pH 8, 40° C., 8 wk): 0%; % of Initial Concentration (0.19847 mg/mL) in pH 5.0 ([3]; ~pH 8, 40° C., 12 wk): 0%; increase in heart rate (adrenergic β1 receptors): 20%; β1/β2 functional ratio (adrenergic β2 receptors; ratio of EC50 β1 to EC50 β2): > 484; EC50 (adrenergic β2 receptors; β2, isolated trachea, guinea pig): 62 nM; β1/β2 binding ratio ([4]; ratio of Ki β1 to Ki β2): > 10; Ki ([4]; β2 receptor, displacement of [3H]-CGP-12177, CHO cells): 990 nM
